ChEMBL document CHEMBL1128729, “Alpha- and beta-adrenoceptors: from the gene to the clinic. 2. Structure-activity relationships and therapeutic applications” (J Med Chem, 1995)

Columns and labels:
[1] = species on record: Cavia porcellus; assay: Ability to block B-HT 920-induced inhibition of inotropic response to field stimulation in superfused guinea pig atrium; assay type: functional; settings: Cardiac atrium
[2] = molecular target: T1, Alpha-1D adrenergic receptor (Homo sapiens, UniProt P25100); assay: biochemical
T1 sequence (P25100 whole entry): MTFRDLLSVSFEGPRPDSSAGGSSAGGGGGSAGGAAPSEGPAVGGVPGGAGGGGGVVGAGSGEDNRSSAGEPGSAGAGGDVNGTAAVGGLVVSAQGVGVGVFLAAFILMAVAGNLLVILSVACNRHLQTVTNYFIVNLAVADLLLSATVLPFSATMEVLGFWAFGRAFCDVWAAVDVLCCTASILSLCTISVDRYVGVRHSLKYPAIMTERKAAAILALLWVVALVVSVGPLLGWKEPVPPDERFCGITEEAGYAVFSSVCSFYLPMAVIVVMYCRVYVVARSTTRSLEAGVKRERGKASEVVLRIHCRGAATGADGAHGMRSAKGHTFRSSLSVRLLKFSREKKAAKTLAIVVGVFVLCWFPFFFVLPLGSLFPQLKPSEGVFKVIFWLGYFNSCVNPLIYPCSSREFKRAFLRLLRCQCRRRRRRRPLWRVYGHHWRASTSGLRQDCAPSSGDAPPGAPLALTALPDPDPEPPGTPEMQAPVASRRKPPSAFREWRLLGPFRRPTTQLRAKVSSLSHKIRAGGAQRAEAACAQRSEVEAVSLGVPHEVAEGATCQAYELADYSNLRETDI
Description: Inhibition of [3H]prazosin binding to human Alpha-1D adrenergic receptor expressed in CHO cells

[3] = species on record: Canis familiaris; assay: Ability to block B-HT 920-induced contraction in canine saphenous vein.; assay type: functional; settings: Canis lupus familiaris
[4] = molecular target: T2, Alpha-1A adrenergic receptor (Homo sapiens, UniProt P35348); assay: biochemical
T2 sequence (P35348 whole entry): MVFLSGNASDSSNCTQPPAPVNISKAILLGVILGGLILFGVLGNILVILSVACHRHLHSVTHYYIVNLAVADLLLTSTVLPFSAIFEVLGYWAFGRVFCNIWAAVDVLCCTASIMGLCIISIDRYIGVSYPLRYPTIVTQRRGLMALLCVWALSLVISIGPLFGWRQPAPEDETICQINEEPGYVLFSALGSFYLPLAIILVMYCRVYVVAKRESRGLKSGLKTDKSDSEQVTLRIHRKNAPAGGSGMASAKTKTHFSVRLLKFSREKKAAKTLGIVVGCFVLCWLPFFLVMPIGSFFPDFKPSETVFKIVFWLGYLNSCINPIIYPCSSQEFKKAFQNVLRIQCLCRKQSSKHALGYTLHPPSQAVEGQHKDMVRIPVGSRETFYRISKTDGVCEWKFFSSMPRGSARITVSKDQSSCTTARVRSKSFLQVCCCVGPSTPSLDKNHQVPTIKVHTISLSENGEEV
Description: Inhibition of [3H]prazosin binding to human Alpha-1A adrenergic receptor expressed in CHO cells

[5] = species on record: Oryctolagus cuniculus; assay: Ability to block norepinephrine-induced contraction in rabbit aorta.; assay type: functional
[6] = molecular target: T3, Alpha-1B adrenergic receptor (Homo sapiens, UniProt P35368); assay: biochemical
T3 sequence (P35368 whole entry): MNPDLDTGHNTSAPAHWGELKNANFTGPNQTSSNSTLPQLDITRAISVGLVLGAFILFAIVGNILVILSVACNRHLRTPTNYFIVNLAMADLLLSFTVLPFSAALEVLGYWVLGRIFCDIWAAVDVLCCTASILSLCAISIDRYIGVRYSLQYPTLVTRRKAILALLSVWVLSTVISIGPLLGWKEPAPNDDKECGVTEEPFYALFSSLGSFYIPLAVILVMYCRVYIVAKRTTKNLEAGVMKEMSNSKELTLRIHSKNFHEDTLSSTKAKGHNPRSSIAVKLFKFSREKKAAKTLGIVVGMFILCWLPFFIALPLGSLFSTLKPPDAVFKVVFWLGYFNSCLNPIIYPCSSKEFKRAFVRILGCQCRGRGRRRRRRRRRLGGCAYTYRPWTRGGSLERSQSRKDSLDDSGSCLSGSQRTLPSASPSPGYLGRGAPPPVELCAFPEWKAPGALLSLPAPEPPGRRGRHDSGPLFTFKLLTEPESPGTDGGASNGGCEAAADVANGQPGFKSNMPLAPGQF
Description: Inhibition of [3H]prazosin binding to human Alpha-1B adrenergic receptor expressed in CHO cells

[7] = molecular target: T4, Alpha-2C adrenergic receptor (Homo sapiens, UniProt P18825); assay: biochemical
T4 sequence (P18825 whole entry): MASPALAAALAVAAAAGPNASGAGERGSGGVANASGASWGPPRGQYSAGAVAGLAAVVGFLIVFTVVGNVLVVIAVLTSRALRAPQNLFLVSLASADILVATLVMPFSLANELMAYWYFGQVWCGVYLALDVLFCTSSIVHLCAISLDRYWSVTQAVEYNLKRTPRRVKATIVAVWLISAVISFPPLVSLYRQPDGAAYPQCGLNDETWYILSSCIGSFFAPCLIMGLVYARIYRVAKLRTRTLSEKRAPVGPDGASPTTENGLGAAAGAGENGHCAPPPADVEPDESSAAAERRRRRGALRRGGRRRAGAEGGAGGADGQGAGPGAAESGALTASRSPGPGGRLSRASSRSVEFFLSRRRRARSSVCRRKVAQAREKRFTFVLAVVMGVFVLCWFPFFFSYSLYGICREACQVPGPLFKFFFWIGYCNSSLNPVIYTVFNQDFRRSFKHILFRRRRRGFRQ

[8] = molecular target: T5, Alpha-2B adrenergic receptor (Homo sapiens, UniProt P18089); assay: biochemical; assay type: cell-based, CHO
T5 sequence (P18089 whole entry): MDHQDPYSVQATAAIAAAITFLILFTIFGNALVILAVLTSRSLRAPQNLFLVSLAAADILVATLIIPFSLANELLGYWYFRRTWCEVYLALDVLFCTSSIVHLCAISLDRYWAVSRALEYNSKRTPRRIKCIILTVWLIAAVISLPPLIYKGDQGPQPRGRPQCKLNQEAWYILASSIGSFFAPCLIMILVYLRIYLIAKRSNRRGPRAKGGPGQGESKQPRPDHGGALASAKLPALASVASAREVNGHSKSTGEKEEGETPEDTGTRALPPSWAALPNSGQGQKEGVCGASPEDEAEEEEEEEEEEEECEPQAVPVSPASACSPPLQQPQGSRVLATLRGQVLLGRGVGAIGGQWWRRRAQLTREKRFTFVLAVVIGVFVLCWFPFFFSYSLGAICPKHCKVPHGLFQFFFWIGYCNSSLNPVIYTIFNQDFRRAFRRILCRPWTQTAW

[9] = molecular target: T6, Alpha-2A adrenergic receptor (Homo sapiens, UniProt P08913); assay: biochemical
T6 sequence (P08913 whole entry): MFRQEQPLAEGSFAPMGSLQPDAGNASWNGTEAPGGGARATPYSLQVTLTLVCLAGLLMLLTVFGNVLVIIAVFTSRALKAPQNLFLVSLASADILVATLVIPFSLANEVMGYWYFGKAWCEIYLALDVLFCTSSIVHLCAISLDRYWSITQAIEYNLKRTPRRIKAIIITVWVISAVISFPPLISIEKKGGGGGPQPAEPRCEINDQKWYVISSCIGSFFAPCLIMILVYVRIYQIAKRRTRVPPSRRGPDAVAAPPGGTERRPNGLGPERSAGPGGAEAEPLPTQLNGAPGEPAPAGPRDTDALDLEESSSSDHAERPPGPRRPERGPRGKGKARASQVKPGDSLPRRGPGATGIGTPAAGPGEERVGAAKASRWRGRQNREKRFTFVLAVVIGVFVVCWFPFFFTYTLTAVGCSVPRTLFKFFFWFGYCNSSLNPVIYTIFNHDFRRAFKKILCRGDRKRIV

[10] = molecular target: Voltage-dependent L-type calcium channel subunit alpha-1C (Rattus norvegicus, UniProt P22002); assay: biochemical
Description: Inhibition of [3H]nitrendipine binding to membrane homogenates of rat cardiac muscle.

[11] = molecular target: Beta-2 adrenergic receptor (Cavia porcellus, UniProt Q8K4Z4); assay: Effective dose for relaxation of guinea pig trachea.
[12] = molecular target: Beta-1 adrenergic receptor (Cavia porcellus, UniProt B0FL73); assay: Effective dose required to stimulate contractions in isolated guinea pig atrium.; assay type: functional, tissue-based, Cardiac atrium
[13] = molecular target: T7, Monoamine oxidase (Homo sapiens, UniProt P21397+P27338); assay: Binding affinity for imidazoline receptor I-2; assay type: protein assay
T7 sequence (P21397 whole entry): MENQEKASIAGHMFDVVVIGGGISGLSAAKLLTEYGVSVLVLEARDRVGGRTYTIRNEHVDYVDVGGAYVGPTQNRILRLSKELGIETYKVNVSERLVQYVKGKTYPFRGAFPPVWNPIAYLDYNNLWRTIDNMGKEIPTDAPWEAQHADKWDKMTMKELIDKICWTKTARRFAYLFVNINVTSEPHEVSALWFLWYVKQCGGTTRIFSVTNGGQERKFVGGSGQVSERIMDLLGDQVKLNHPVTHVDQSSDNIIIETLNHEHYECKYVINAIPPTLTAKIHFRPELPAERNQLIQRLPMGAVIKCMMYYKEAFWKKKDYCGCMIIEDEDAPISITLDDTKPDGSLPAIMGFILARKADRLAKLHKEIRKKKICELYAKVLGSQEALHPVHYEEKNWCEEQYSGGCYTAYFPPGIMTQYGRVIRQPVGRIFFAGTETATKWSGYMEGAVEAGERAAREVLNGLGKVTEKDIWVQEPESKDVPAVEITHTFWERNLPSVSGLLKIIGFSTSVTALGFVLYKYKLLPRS
T7 sequence (P27338 whole entry): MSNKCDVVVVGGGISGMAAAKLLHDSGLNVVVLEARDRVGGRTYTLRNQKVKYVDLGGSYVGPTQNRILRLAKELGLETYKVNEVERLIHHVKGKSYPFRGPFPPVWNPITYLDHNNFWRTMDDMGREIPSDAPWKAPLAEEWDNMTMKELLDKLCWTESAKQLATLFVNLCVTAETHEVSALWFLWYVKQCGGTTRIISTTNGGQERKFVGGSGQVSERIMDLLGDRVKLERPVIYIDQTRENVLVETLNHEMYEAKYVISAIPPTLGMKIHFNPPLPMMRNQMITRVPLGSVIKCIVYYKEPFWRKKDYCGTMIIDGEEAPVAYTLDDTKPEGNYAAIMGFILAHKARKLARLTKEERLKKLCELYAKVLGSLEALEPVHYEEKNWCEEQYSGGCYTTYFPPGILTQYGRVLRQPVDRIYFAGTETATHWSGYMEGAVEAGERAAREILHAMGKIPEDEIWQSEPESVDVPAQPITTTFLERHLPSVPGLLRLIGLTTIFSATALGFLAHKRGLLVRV

Voltage-dependent L-type calcium channel subunit alpha-1C, sequence (P22002 whole entry): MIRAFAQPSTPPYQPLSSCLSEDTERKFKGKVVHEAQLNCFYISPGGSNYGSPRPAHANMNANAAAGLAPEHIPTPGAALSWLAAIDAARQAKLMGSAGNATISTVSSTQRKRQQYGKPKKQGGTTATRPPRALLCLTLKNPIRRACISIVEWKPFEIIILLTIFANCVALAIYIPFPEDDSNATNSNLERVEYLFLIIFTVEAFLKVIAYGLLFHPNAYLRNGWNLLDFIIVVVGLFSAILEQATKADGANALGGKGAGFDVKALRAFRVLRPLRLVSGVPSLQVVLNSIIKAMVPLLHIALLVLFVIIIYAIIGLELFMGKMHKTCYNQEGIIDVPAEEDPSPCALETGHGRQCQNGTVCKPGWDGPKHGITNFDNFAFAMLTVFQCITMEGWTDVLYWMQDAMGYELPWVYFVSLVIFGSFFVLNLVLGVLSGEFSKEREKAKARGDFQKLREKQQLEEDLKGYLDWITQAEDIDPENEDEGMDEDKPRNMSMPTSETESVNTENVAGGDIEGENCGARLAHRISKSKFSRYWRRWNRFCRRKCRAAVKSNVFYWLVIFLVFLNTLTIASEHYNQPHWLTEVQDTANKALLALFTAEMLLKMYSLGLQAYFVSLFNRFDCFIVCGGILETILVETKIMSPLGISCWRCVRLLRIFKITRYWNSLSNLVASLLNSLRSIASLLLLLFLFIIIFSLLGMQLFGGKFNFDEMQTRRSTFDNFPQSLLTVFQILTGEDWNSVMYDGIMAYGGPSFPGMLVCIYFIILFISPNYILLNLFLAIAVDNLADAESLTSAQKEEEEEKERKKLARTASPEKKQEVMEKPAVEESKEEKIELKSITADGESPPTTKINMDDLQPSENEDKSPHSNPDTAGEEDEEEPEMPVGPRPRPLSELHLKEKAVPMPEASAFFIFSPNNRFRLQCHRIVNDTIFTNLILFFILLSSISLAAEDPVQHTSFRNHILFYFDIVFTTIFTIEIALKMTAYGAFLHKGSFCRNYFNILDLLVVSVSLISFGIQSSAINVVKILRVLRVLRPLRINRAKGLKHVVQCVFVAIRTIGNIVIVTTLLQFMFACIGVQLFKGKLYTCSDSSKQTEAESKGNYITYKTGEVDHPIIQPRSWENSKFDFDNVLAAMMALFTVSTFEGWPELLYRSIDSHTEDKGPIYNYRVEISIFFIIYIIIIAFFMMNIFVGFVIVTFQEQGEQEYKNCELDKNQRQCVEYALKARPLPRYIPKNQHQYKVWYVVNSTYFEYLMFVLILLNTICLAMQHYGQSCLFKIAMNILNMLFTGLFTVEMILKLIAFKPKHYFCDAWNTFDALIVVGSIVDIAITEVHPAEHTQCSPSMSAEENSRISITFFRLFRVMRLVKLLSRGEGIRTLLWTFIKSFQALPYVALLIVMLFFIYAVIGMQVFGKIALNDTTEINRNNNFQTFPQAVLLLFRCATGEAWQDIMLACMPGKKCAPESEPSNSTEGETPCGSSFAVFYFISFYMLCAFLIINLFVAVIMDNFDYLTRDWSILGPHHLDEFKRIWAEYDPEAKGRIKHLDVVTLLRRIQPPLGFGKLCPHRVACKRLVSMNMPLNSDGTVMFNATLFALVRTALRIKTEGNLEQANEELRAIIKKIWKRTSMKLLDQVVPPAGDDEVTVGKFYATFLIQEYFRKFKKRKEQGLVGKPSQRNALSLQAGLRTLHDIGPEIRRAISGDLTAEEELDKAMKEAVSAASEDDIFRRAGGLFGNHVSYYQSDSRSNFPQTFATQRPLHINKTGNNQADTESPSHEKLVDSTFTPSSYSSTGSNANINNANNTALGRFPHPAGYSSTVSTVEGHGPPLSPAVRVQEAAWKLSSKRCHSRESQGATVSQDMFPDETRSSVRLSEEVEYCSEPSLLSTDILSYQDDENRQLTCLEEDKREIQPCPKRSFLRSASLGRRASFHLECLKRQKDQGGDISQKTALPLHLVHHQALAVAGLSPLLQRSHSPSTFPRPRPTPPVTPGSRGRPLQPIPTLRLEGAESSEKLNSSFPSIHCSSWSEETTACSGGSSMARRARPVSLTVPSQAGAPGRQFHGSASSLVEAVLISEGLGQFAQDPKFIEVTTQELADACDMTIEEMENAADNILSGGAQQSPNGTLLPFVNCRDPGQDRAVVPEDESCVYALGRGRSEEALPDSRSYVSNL
Beta-2 adrenergic receptor, sequence (Q8K4Z4 whole entry): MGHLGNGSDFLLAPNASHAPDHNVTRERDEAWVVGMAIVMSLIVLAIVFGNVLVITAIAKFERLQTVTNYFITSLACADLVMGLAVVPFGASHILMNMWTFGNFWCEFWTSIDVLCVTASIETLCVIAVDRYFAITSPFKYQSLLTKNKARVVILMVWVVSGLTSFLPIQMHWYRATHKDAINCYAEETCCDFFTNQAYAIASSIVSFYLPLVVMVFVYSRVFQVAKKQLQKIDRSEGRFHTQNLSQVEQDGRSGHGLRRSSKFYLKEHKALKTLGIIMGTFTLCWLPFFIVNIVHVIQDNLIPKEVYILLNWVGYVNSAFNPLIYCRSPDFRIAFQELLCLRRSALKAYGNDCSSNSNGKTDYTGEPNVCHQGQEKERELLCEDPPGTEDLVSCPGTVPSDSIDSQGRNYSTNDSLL
Beta-1 adrenergic receptor, sequence (B0FL73 whole entry): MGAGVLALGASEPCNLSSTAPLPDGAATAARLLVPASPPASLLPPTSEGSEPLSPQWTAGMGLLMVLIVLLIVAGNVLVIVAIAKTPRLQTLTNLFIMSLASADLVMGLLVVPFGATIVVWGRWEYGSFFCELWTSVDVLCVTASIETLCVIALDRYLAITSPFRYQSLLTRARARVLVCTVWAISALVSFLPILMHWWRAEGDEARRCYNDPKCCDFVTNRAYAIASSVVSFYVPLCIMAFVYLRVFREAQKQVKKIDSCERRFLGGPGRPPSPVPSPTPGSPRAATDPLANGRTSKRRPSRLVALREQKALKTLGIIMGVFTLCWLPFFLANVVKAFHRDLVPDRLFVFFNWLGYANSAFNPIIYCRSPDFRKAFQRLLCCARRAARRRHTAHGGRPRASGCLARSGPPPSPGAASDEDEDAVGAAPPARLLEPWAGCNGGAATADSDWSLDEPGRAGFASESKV

| SMILES | Kb [1] | Ki [2] | Kb [3] | Ki [4] | Kb [5] | Ki [6] | Ki [7] | Ki [8] | Ki [9] | Ki [10] | EC50 [11] | EC50 [12] | Ki [13] |
| --- | --- | --- | --- | --- | --- | --- | --- | --- | --- | --- | --- | --- | --- |
| CC(C)=CCOc1ccc(Cl)c2c1CCN(C)CC2 | > 3000 nM | 33 nM | 76 nM | 33 nM | 150 nM | 87 nM | – | – | – | – | – | – | – |
| CN1CCc2c(Cl)ccc3oc(Br)c(c23)C1 | > 3000 nM | 72 nM | 40 nM | 3300 nM | > 1000 nM | 783 nM | 28 nM | 14 nM | 54 nM | – | – | – | – |
| CN1CCc2cccc(Cl)c2CC1 | 17 nM | 126 nM | 42 nM | 449 nM | 600 nM | 485 nM | – | 16 nM | 9.4 nM | – | – | – | – |
| CCc1sc2ccc(Cl)c3c2c1CN(C)CC3 | > 3000 nM | 1.2 nM | 84 nM | 58 nM | 56 nM | 15 nM | 35 nM | 15 nM | 31 nM | – | – | – | – |
| C=Cc1sc2ccc(Cl)c3c2c1CN(C)CC3 | > 3000 nM | 1.6 nM | 29 nM | 36 nM | 25 nM | 23 nM | 21 nM | 3.4 nM | 24 nM | – | – | – | – |
| CC1=C(C(N)=O)C(c2ccc([N+](=O)[O-])cc2)C(C(=O)NCCCN2CCC(c3ccccc3)(c3ccccc3)CC2)=C(C)N1 (stereo unspecified) | – | – | – | – | – | – | – | – | – | > 10 nM | – | – | – |
| CNC(=O)C1=C(C)NC(C)=C(C(=O)NCCCN2CCC(c3ccccc3)(c3ccccc3)CC2)C1c1ccc([N+](=O)[O-])cc1 (stereo unspecified) | – | – | – | 3.1 nM | – | – | – | – | – | > 5000 nM | – | – | – |
| COC(=O)C1=C(C)NC(C)=C(C(=O)NCCCN2CCC(c3ccccc3)(c3ccccc3)CC2)C1c1cccc([N+](=O)[O-])c1 (stereo unspecified) | – | – | – | 0.4 nM | – | – | – | – | – | 30 nM | – | – | – |
| CNC[C@H](O)c1ccc(O)c(O)c1 (stereo in doubt; (+)) [EPINEPHRINE] | – | – | – | – | – | – | – | – | – | – | 436 nM | 436 nM | – |
| CNC[C@H](O)c1ccc(O)c(O)c1 (stereo in doubt; (-)) [EPINEPHRINE] | – | – | – | – | – | – | – | – | – | – | 15 nM | 15 nM | – |
| c1ccc2c(c1)OCC(C1=NCCN1)O2 (stereo unspecified) [IDAZOXAN] | – | – | – | – | – | – | – | – | – | – | – | – | < 10 nM |
